In patent US11674963B2, “GPCRs in cancer-associated fibroblasts” (The Regents of the University of California, priority 2017, dated 2023):
Where a SMILES comes first, the peptide text is derived from it. The star is where a group is joined. Cbz = O=C(OCc1ccccc1)*

Key:
Format in all cases: cell-based, human
CAFs = experiment: Real-time qPCR of GPR68 and IL-6 expression in CAFs at pH 6.8 with PKA or CREB inhibitors; settings: CAFs cultured 6 h in pH 6.8 media, normalized to pH 7.4
Procedure: FIG. 6A show CAFs transfected with control or GPR68 siRNA were cultured in pH media for 30 min, treated with 1 mM IBMX for 10 min and cellular cAMP was measured by the HitHunter cAMP assay. Data are mean±SEM, n=3, two-way ANOVA, *p<0.05, ****p<0.0001. […] Results were normalized to those at pH 7.4. n=3, data are mean±SEM, unpaired t test, **p<0.01, ***p<0.001, ns=non-significant. […] Activation of CREB is shown as p-CREB/CREB. Data are mean±SEM, n=3, unpaired t test, *p<0.05. […] Results are normalized to those at pH 7.4. Data are mean±SEM, n=3, unpaired t test, **p<0.01, ***p<0.001, ns=non-significant.
(§1) RNA isolated using an RNeasy kit with DNase treatment (Qiagen) and converted to cDNA using an iScript cDNA Synthesis Kit (Bio-Rad, Irvine, Calif., USA). cDNA was mixed with gene-specific primers and SYBR green reagent (Quanta Biosciences, Gaithersburg, Md., USA) for PCR amplification using a DNA Engine Opticon 2 system (MJ Research, Waltham, Mass., USA). Primers were designed using Primer Premier 6 software (PREMIER Biosoft, Palo Alto, Calif., USA). Gene expression was quantified as ΔCt using 18S rRNA as the reference gene. Expression of different cells was compared as fold-change=2(AACt). RNA isolated using an RNeasy kit with DNase treatment (Qiagen) and converted to cDNA using an iScript cDNA Synthesis Kit (Bio-Rad, Irvine, Calif., USA). cDNA was mixed with gene-specific primers and SYBR green reagent (Quanta Biosciences, Gaithersburg, Md., USA) for PCR amplification using a DNA Engine Opticon 2 system (MJ Research, Waltham, Mass., USA). Primers were designed using Primer Premier 6 software (PREMIER Biosoft, Palo Alto, Calif., USA). Gene expression was quantified as ΔCt using 18S rRNA as the reference gene. Expression of different cells was compared as fold-change=2(AACt). […] Gene expression was quantified as ΔCt using 18S rRNA as the reference gene. […]
The pH media are DMEM containing 5 g/L glucose, 20 mM HEPES, 20 mM NaHCO3, 2% FBS, 100 I.U./ml penicillin and 100 μg/ml streptomycin, pH adjusted by HCl or NaOH at room temperature. […] Cell viability were assessed by a CEllTiter-Glo Luminescent assay (Promega) and detected using a DXT 800 multimode plate reader (Beckman Coulter, Carlsbad, Calif., USA).

PSCs [1] = experiment: Real-time qPCR of GPR68 expression in PSCs incubated with TNFα and NF-κB inhibitors; settings: 6 h, TNFα 50 ng/mL; MG-132 20 μM, IKK2 inhibitor VI 5 μM, JSH-23 20 μM, CAY10512 0.3 μM
Excerpt: (§2) FIGS. 3A-3D show co-culture of PDAC cells and PSCs increases expression by PSCs of GPR68 and fibrotic genes, effects mediated by TNFα and TGFβ, respectively. […] Relative expression was compared by 2^(ΔCt control-ΔCtco-culture). Data are mean±SEM, n=3, unpaired t test, *p<0.05, **p<0.01, ***p<0.001, ****p<0.0001. […] Relative expression was compared by 2^(ΔCt control-ΔCtTGFβ1 or ΔCtTNFα). Data are mean±SEM, n=3, unpaired t test, *p<0.05, **p<0.01, ****p<0.0001. […] Relative expression was compared to control by 2(ΔCt control-ΔCtco-culture). Data are mean±SEM, n=3, unpaired t test, *p<0.05. […] Relative expression was normalized to control by 2(ΔCt^control-ΔCtTGFβ1 or ^ΔCtTNFα) n=3, data are mean±SEM, unpaired t test, *p<0.05, **p<0.01, ****p<0.0001.
as §1

PSCs [2] = experiment: Real-time qPCR of gene expression in PSCs incubated with TGFβ1 or TNFα; settings: PSCs incubated 48 h with 50 ng/mL
Excerpt: as §2
RNA isolated using an RNeasy kit with DNase treatment (Qiagen) and converted to cDNA using an iScript cDNA Synthesis Kit (Bio-Rad, Irvine, Calif., USA). cDNA was mixed with gene-specific primers and SYBR green reagent (Quanta Biosciences, Gaithersburg, Md., USA) for PCR amplification using a DNA Engine Opticon 2 system (MJ Research, Waltham, Mass., USA). Primers were designed using Primer Premier 6 software (PREMIER Biosoft, Palo Alto, Calif., USA). Gene expression was quantified as ΔCt using 18S rRNA as the reference gene. Expression of different cells was compared as fold-change=2(AACt). RNA isolated using an RNeasy kit with DNase treatment (Qiagen) and converted to cDNA using an iScript cDNA Synthesis Kit (Bio-Rad, Irvine, Calif., USA). cDNA was mixed with gene-specific primers and SYBR green reagent (Quanta Biosciences, Gaithersburg, Md., USA) for PCR amplification using a DNA Engine Opticon 2 system (MJ Research, Waltham, Mass., USA). Primers were designed using Primer Premier 6 software (PREMIER Biosoft, Palo Alto, Calif., USA). Gene expression was quantified as ΔCt using 18S rRNA as the reference gene. Expression of different cells was compared as fold-change=2(AACt). The primer sequences are: 18S-F: 5′-[…]-3′ (SEQ ID NO: 1); 18S-R: 5′-[…]-3′ (SEQ ID NO: 2); GPR68-F: 5′-CCTTCCGCTTCCACCAGTT-3′ (SEQ ID NO: 3); GPR68-R: 5′-TCGTCCTCGATGACCTCCT-3′ (SEQ ID NO: 4); ACTA2-F: 5′-[…]-3′ (SEQ ID NO: 5); ACTA2-R: 5′-[…]-3′ (SEQ ID NO: 6); COL1A1-F: 5′-[…]-3′ (SEQ ID NO: 7); COL1A1-R: 5′-[…]-3′ (SEQ ID NO: 8); IL6-F: 5′-[…]-3′ (SEQ ID NO: 9); IL6-R: 5′-[…]-3′ (SEQ ID NO: 10); COL3A1-F: 5′-GCTGGCTACTTCTCGCTCT-3′ (SEQ ID NO: 11); COL3A1-R: 5′-[…]-3′ (SEQ ID NO: 12); POSTN-F: 5′-[…]-3′ (SEQ ID NO: 13); POSTN-R: 5′-[…]-3′ (SEQ ID NO: 14); CTGF-F: 5′-[…]-3′ (SEQ ID NO: 15); CTGF-R: 5′-GCTACAGGCAGGTCAGTGA-3′ (SEQ ID NO: 16); PDGFRB-F: 5′-[…]-3′ (SEQ ID NO: 17); PDGFRB-R: 5′-[…]-3′ (SEQ ID NO: 18). Gene expression was quantified as ΔCt using 18S rRNA as the reference gene. We compared expression of different cells as fold-change=2(AACt).

Q: How did the “GPR68 expression in CAFs” value (CAFs) turn out when `O=S(=O)(NCCNC/C=C/c1ccc(Br)cc1)c1cccc2cnccc12` [H89] was run?
A: The value was “did not alter”.

Q: What about the “pH 6.8-promoted increase in IL-6 expression by CAFs” value (CAFs) of the same compound?
A: Its value is “blocked”.

Q: For `NC(=O)Nc1sc(-c2ccccc2)cc1C(N)=O` [IKK2 inhibitor VI], which “TNFα-promoted increase in GPR68 expression in PSCs” value (“TNFα-promoted increase” for short) (PSCs [1]) is on record?
A: Its value is “reduced”.

Q: How did the “TNFα-promoted increase” value (PSCs [1]) turn out when `Cc1ccc(NCCCc2ccccc2)c(N)c1` [JSH-23] was run?
A: Its value is “reduced”.

Q: `CC(C)C[C@@H](C=O)NC(=O)[C@H](CC(C)C)NC(=O)[C@H](CC(C)C)NC(=O)OCc1ccccc1` [MG132] (Cbz-Leu-Leu-Leu-aldehyde) was tested. Which “TNFα-promoted increase” value (PSCs [1]) did it give?
A: Its value is “reduced”.

Q: Which results are given for `O=C(Nc1ccc(Cl)cc1)c1cc2ccccc2cc1O` [naphthol AS-E]?
A: GPR68 expression in CAFs (CAFs): without altering; pH 6.8-promoted increase in IL-6 expression by CAFs (CAFs): blunted

Q: For “TGFβ1: Transforming growth factor beta 1, a driver of PSC activation”, which ACTA2 expression (PSCs [2]) is on record?
A: The ACTA2 expression was “increased expression”.

Q: What about the COL1A1 expression (PSCs [2]) of the same compound?
A: Its COL1A1 expression is “increased expression”.

Q: What about the GPR68 expression (PSCs [2]; result in words) of the same compound?
A: Its GPR68 expression is “did not change”.

Q: Which results are given for TNFα?
A: ACTA2 expression (PSCs [2]): not higher; COL1A1 expression (PSCs [2]): not higher; expression of GPR68 (PSCs [2]; higher vs control): 18 fold; expression of IL-6 (PSCs [2]; higher vs control): 31 fold
